Values joined by “and” are separate entries in the source; they are usually repeats but may differ in a detail not shown here. Equal entries are not always repeated.
System: 128128-338-R-J1-PDC spheroids, viability % test/control
Experiment: Anticancer human tumor 128128-338-R-J1-PDC patient-derived melanoma cell line growth inhibition [TAK]
Conditions: spheroids with HUVEC and MSC; for viability, T/C: stronger effect = lower value
Text: Combinatorial screen of targeted agents with TAK-243 and ipatasertib in multi-cell type tumor spheroids
A high-throughput screen of multi-cell type tumor spheroids was designed to identify active combinations of targeted small molecules and TAK-243 or ipatasertib. Complex spheroids include a stromal component modeled by human endothelial cells (HUVEC) and fibroblasts modeled by human mesenchymal stem cells (MSCs). The concentration ranges selected for each drug and investigational agent were based upon clinically achievable concentrations if the clinical Cmax of the agent was known.
Compounds. The drugs and investigational agents: TAK-243 (785004), ipatasertib (767898), everolimus (733504), selumetinib (741078), bortezomib (756655), trametinib (758246), ixazomib (758254), vemurafenib (761431), dabrafenib (764134), sapanisertib (764658), alpelisib (765974), and copanlisib (816437), were obtained from the National Cancer Institute (NCI) Developmental Therapeutics Program Chemical Repository. The FDA-approved anticancer drug set is available from the NCI Developmental Therapeutics Program. […] The stock solutions were prepared in dimethyl sulfoxide (DMSO, Sigma-Aldrich, St. Louis, MO, cat. D2650) at 800-fold the tested concentration and stored at -70 degrees C prior to their use. All drugs and investigational agents were tested over a range starting from a high concentration at or near the clinical Cmax and decreasing in half-log increments. If the clinical Cmax for an agent had not been determined, the highest concentration tested was 10 microM.
NCI60 Cell Culture. NCI60 cell lines were obtained from the NCI Developmental Therapeutics Program Tumor Repository. For each lot of cells, the Repository performed Applied Biosystems AmpFLSTR Identifiler testing with PCR amplification to confirm consistency with the published Identifier STR profile for each cell line. Cells were kept in continuous culture for no more than 20 passages. The optimal seeding densities for each of the cell lines at each time point assessed were determined prior to performing the concentration response studies. Briefly, the NCI60 human tumor lines were grown as monolayers in RPMI 1640 medium supplemented with 10% FBS and 2 mmol/L L-glutamine.
An additional 2 lines were from the NCI60 cell line panel including melanomas, MALME-3M and SK-MEL-2. Pooled donor human umbilical vein endothelial cells (HUVEC, Lonza, cat. CC-2519) and human mesenchymal stem cells (hMSC, Lonza, cat. PT-2501) were purchased from Lonza (Walkersville, MD).
PDMR cell lines were grown in complete medium (DC medium): Dulbecco's modified Eagle's medium (DMEM)/F12 supplemented with 5% fetal bovine serum (FBS), 2 mM L-glutamine, 100 U/mL penicillin and 100 µg/ml streptomycin, 0.4 µg/ml hydrocortisone, 10 ng/ml epidermal growth factor (EGF) recombinant human protein, 24 µg/mL adenine, and 0.1 mg/mL primocin. During culture from frozen stock vials, PDMR cells were cultured in the same medium containing 10 µM Y-27632 (see Table 3). The PDCs were cultured in complete DMEM/F12 media without 10 microM Y-27632 dihydrochloride for at least two passages prior to the screen. The pooled donor HUVEC and hMSC were cultured in endothelial cell growth medium 2 (PromoCell, Heidelberg, Germany, cat. C-22011) and mesenchymal stem cell growth medium 2 (PromoCell, cat. C-28009), respectively. For all experiments, HUVEC and hMSC were used at passages </=5.
For the pre-screen, cell seeding densities were determined from a titration spanning the range from 5,000 to 313 cells per well. The mct-spheroids including 60% malignant cells, 25% HUVEC and 15% MSC dispensed as a mixture into U-bottom Ultra-Low Attachment 384-well plates (Corning, NY)
High-throughput Drug Combination Screening.
Prior to their inoculation into 384-well plates, malignant cells, HUVEC, and hMSC were removed from T flasks using TrypLE express (Thermo Fisher Scientific, cat. 12605036) and harvested by centrifugation for 5 min at 233 x g. […]
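Note: spheroids exposed to compounds for 7 days.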
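Throughout, for viability, T/C: 100% = DMSO vehicle wells.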

## CC(C)n1nc(-c2ccc3oc(N)nc3c2)c2c(N)ncnc21
Compound 0.000316 µM
  viability, T/C: 99.1% and 106%
Compound 0.001 µM
  viability, T/C: 94.7% and 96.1%
Compound 0.00316 µM
  viability, T/C: 83.2% and 80.7%
Compound 0.01 µM
  viability, T/C: 67.3% and 64.7%
Compound 0.0316 µM
  viability, T/C: 31.2% and 30.5%
Compound 0.1 µM
  viability, T/C: 6.18% and 6.1%
Curve of compound
  IC50: 16.9 nM and 15.7 nM

## Cn1cnc2c(F)c(Nc3ccc(Br)cc3Cl)c(C(=O)NOCCO)cc21
Compound 0.00949 µM
  viability, T/C: 95.7% and 94.9%
Compound 0.03 µM
  viability, T/C: 75.4% and 82.6%
Compound 0.0949 µM
  viability, T/C: 44.2% and 50.7%
Compound 0.3 µM
  viability, T/C: 9.03% and 14.9%
Compound 0.949 µM
  viability, T/C: 3.38% and 4.34%
Compound 3 µM
  viability, T/C: 3.13% and 2.58%
Curve of compound
  IC50: 72.1 nM and 94.6 nM

## CC(C)CC(NC(=O)C(Cc1ccccc1)NC(=O)c1cnccn1)B(O)O (centres undefined) + CC(C)NCC(C(=O)N1CCN(c2ncnc3c2C(C)CC3O)CC1)c1ccc(Cl)cc1
Curve of first compound, second compound 0.3 µM
  IC50: 1.8 nM
Curve of first compound, second compound 0.949 µM
  IC50: 1.82 nM
Curve of first compound, second compound 3 µM
  IC50: 1.64 nM
Curve of first compound, second compound 9.49 µM
  IC50: 1.22 nM
Curve of first compound, second compound 30 µM
  IC50: < 0.0316 nM
Second compound 0.3 µM, first compound 31.6 pM
  viability, T/C: 102%
Second compound 0.3 µM, first compound 0.0001 µM
  viability, T/C: 102%
Second compound 0.3 µM, first compound 0.000316 µM
  viability, T/C: 96.1%
Second compound 0.3 µM, first compound 0.001 µM
  viability, T/C: 97.3%
Second compound 0.3 µM, first compound 0.00316 µM
  viability, T/C: 4.43%
Second compound 0.3 µM, first compound 0.01 µM
  viability, T/C: 0.08%
Second compound 0.949 µM, first compound 31.6 pM
  viability, T/C: 102%
Second compound 0.949 µM, first compound 0.0001 µM
  viability, T/C: 108%
Second compound 0.949 µM, first compound 0.000316 µM
  viability, T/C: 109%
Second compound 0.949 µM, first compound 0.001 µM
  viability, T/C: 101%
Second compound 0.949 µM, first compound 0.00316 µM
  viability, T/C: 2.86%
Second compound 0.949 µM, first compound 0.01 µM
  viability, T/C: 0.1%
Second compound 3 µM, first compound 31.6 pM
  viability, T/C: 84%
Second compound 3 µM, first compound 0.0001 µM
  viability, T/C: 87.6%
Second compound 3 µM, first compound 0.000316 µM
  viability, T/C: 90.9%
Second compound 3 µM, first compound 0.001 µM
  viability, T/C: 83.1%
Second compound 3 µM, first compound 0.00316 µM
  viability, T/C: 6.23%
Second compound 3 µM, first compound 0.01 µM
  viability, T/C: 0.05%
Second compound 9.49 µM, first compound 31.6 pM
  viability, T/C: 66.8%
Second compound 9.49 µM, first compound 0.0001 µM
  viability, T/C: 71%
Second compound 9.49 µM, first compound 0.000316 µM
  viability, T/C: 72.5%
Second compound 9.49 µM, first compound 0.001 µM
  viability, T/C: 60%
Second compound 9.49 µM, first compound 0.00316 µM
  viability, T/C: 1.26%
Second compound 9.49 µM, first compound 0.01 µM
  viability, T/C: 0.08%
Second compound 30 µM, first compound 31.6 pM
  viability, T/C: 21.8%
Second compound 30 µM, first compound 0.0001 µM
  viability, T/C: 21.8%
Second compound 30 µM, first compound 0.000316 µM
  viability, T/C: 23.7%
Second compound 30 µM, first compound 0.001 µM
  viability, T/C: 22%
Second compound 30 µM, first compound 0.00316 µM
  viability, T/C: 0.38%
Second compound 30 µM, first compound 0.01 µM
  viability, T/C: 0.13%

— PubChem BioAssay AID2060362 (Molecular Pharmacology Branch, DTP, NCI, 2025)
